Columns and labels:
Sulfotransferase 1A1 [1] = target: T1, Sulfotransferase 1A1 (Homo sapiens, UniProt P50225); test: Binding affinity to human SULT1A1 expressed in Escherichia coli assessed as change in intrinsic fluorescence; format: ADME
Sulfotransferase 1A1 [2] = target: T1, Sulfotransferase 1A1; test: Binding affinity to human SULT1A1 expressed in Escherichia coli assessed as change in intrinsic fluorescence in presence of 3',5'-phosphoadenosine; format: ADME
Sulfotransferase 1A1 [3] = target: T1, Sulfotransferase 1A1; test: Inhibition of human SULT1A1 expressed in Escherichia coli assessed as 17beta-estradiol sulfation at 100 nM by Michaelis-Menten equation analysis
Sulfotransferase 1A1 [4] = target: T1, Sulfotransferase 1A1; test: Inhibition of human SULT1A1 expressed in Escherichia coli assessed as p-nitrophenol sulfation at 100 nM by Michaelis-Menten equation analysis
Sulfotransferase 1A1 [5] = target: T1, Sulfotransferase 1A1; test: Inhibition of human SULT1A1 expressed in Escherichia coli assessed as beta-naphthol sulfation at 100 nM by Michaelis-Menten equation analysis
Sulfotransferase 1A1 [6] = target: T1, Sulfotransferase 1A1; test: Inhibition of SULT1A1 in human MCF7 cells assessed as 17beta-estradiol sulfation; format: cell-based

T1 sequence (P50225 whole entry): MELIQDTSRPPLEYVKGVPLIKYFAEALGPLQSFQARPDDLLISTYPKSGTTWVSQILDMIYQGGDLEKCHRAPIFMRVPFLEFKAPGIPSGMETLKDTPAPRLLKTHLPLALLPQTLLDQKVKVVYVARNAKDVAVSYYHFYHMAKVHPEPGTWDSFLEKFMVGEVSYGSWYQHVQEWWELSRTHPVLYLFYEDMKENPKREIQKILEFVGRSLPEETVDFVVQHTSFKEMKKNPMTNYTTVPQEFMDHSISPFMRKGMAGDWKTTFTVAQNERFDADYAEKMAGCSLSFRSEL

Row | Ki (Sulfotransferase 1A1 [3]) | Ki (Sulfotransferase 1A1 [4]) | Ki (Sulfotransferase 1A1 [5]) | IC50 (Sulfotransferase 1A1 [6]) | SMILES | Kd (Sulfotransferase 1A1 [1]) | Kd (Sulfotransferase 1A1 [2])
1 | – | – | – | – | C[C@]12CC[C@@H]3c4ccc(O)cc4CC[C@H]3[C@@H]1CC[C@@H]2O [ESTRADIOL] | 2300 nM | 1200 nM
2 | 14.9 nM | 8.9 nM | 19 nM | 20 nM | C#C[C@]1(O)CC[C@H]2[C@@H]3CCc4cc(O)ccc4[C@H]3CC[C@@]21C [ETHINYL ESTRADIOL] | 500 nM | 4.3 nM

— ChEMBL document CHEMBL3525919, “Potent inhibition of human sulfotransferase 1A1 by 17α-ethinylestradiol: role of 3'-phosphoadenosine 5'-phosphosulfate binding and structural rearrangements in regulating inhibition and activity” (Drug Metab Dispos, 2012)
